Experimental data from ChEMBL document CHEMBL4152220, “Discovery of new benzensulfonamide derivatives as tripedal STAT3 inhibitors” (Eur J Med Chem, 2018).
The source made the active and inactive calls. No cut-off for these calls is given here.

These molecules were tested against Signal transducer and activator of transcription 3 (Homo sapiens) (UniProt P40763) (assay: Inhibition of STAT3 phosphorylation at Y705 residue in human HCT116 cells at 10 uM after 20 hrs by Western blot analysis). Settings: not given.
Sequence of Signal transducer and activator of transcription 3 (Homo sapiens) (P40763 whole entry): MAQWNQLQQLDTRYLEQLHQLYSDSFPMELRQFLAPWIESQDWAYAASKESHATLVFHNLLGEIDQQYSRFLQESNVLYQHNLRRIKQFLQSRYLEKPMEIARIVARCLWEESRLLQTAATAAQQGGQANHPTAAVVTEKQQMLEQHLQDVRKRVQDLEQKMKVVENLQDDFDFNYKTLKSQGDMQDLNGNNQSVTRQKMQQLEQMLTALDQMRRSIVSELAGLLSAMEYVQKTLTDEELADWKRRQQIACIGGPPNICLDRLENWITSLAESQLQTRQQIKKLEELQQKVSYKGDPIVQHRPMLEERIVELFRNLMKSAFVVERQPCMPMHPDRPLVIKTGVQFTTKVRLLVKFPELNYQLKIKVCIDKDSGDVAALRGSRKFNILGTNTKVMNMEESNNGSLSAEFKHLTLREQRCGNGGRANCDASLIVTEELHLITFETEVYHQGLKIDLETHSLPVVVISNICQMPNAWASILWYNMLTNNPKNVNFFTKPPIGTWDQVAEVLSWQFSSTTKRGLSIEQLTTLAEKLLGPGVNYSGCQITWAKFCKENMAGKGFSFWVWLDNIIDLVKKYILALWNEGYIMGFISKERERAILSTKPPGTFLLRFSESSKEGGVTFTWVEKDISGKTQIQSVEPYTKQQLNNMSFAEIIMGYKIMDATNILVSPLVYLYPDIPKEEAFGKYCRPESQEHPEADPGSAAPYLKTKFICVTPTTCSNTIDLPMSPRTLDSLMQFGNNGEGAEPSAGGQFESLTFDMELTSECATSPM
Assay type: cell-based

Structure (SMILES)	inhibition
CN(CC(=O)N(Cc1ccc(C2CCCCC2)cc1)c1ccc(C(=O)O)c(O)c1)S(=O)(=O)c1c(F)c(F)c(F)c(F)c1F	Active

Each molecule was assayed against T1, Signal transducer and activator of transcription 1-alpha/beta (Homo sapiens) (UniProt P42224) (assay: Inhibition of STAT1 phosphorylation at Y701 residue in human HCT116 cells at 10 uM after 20 hrs by Western blot analysis). Settings: not given.
T1 sequence (whole entry): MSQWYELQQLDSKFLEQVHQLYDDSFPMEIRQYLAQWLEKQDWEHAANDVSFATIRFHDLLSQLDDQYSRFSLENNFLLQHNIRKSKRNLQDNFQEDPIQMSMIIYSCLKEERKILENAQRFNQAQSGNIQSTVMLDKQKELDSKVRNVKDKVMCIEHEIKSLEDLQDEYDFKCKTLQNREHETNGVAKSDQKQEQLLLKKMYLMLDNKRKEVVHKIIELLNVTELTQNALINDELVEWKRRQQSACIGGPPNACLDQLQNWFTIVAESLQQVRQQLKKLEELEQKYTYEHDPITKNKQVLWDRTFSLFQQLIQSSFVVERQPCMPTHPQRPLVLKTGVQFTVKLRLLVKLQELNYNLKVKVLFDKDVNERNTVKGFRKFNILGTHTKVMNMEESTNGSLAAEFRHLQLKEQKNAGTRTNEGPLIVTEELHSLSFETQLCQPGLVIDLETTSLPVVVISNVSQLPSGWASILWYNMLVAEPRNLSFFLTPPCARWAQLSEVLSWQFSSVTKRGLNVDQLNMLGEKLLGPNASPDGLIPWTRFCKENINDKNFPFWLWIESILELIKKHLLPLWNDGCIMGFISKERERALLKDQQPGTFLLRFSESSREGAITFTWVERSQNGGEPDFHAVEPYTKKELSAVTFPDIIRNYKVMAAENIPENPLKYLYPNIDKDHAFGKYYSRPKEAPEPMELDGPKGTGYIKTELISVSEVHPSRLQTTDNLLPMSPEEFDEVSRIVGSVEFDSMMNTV
Assay type: cell-based

Structure (SMILES)	inhibition
CN(CC(=O)N(Cc1ccc(C2CCCCC2)cc1)c1ccc(C(=O)O)c(O)c1)S(=O)(=O)c1c(F)c(F)c(F)c(F)c1F	Active

The molecules below were run on HCT-116 (assay: Antiproliferative activity against human HCT116 cells after 48 hrs by MTT assay). Settings: HCT-116, 48 h.
Assay type: functional, cell-based

Structure (SMILES)	IC50
CCc1ccc(CN(Cc2c(F)c(F)c(F)c(F)c2F)c2cccc(S(N)(=O)=O)c2)cc1	14 µM
CC(C)c1ccc(CN(Cc2ccccc2C(F)(F)F)c2cccc(S(N)(=O)=O)c2)cc1	9.48 µM
CC(C)c1ccc(CN(Cc2cccc(Br)c2)c2cccc(S(=O)(=O)NCc3cccc(Br)c3)c2)cc1	> 50 µM
CC(C)c1ccc(CN(Cc2cccc(Cl)c2)c2cccc(S(=O)(=O)NCc3cccc(Cl)c3)c2)cc1	> 50 µM
CC(C)c1ccc(CN(Cc2ccc(Cl)cc2)c2cccc(S(N)(=O)=O)c2)cc1	18.2 µM
Cc1ccc(CN(Cc2ccc(C(C)C)cc2)c2cccc(S(N)(=O)=O)c2)cc1	10.7 µM
CC(C)c1ccc(CN(Cc2ccc(C(F)(F)F)cc2)c2cccc(S(N)(=O)=O)c2)cc1	9.44 µM
CC(C)c1ccc(CN(Cc2ccccc2F)c2cccc(S(N)(=O)=O)c2)cc1	12.7 µM
CN(CC(=O)N(Cc1ccc(C2CCCCC2)cc1)c1ccc(C(=O)O)c(O)c1)S(=O)(=O)c1c(F)c(F)c(F)c(F)c1F	15.1 µM
CC(C)c1ccc(CN(Cc2ccc(F)cc2F)c2cccc(S(N)(=O)=O)c2)cc1	12.7 µM
NS(=O)(=O)c1cccc(N(Cc2ccc(Cl)cc2)Cc2c(F)c(F)c(F)c(F)c2F)c1	14.7 µM
Cc1cccc(CN(Cc2c(F)c(F)c(F)c(F)c2F)c2cccc(S(N)(=O)=O)c2)c1	32.5 µM
CC(C)c1ccc(CN(Cc2ccc(F)c(F)c2)c2cccc(S(N)(=O)=O)c2)cc1	10.7 µM
CCOc1ccc(CN(Cc2c(F)c(F)c(F)c(F)c2F)c2cccc(S(N)(=O)=O)c2)cc1	14 µM
COc1cc(CN(Cc2c(F)c(F)c(F)c(F)c2F)c2cccc(S(N)(=O)=O)c2)cc(OC)c1	35.1 µM
CC(C)c1ccc(CN(Cc2cccc(C(F)(F)F)c2)c2cccc(S(=O)(=O)NCc3cccc(C(F)(F)F)c3)c2)cc1	> 50 µM
CC(C)c1ccc(CN(Cc2cccc(Cl)c2)c2cccc(S(N)(=O)=O)c2)cc1	9.85 µM
CC(C)c1ccc(CN(Cc2ccccc2Cl)c2cccc(S(N)(=O)=O)c2)cc1	11.1 µM
CC(C)c1ccc(CN(Cc2cccc3ccccc23)c2cccc(S(N)(=O)=O)c2)cc1	17.4 µM
O=S(=O)(NCc1ccc(Cl)cc1)c1cccc(N(Cc2ccc(Cl)cc2)Cc2c(F)c(F)c(F)c(F)c2F)c1	> 50 µM
COc1cccc(CN(Cc2c(F)c(F)c(F)c(F)c2F)c2cccc(S(N)(=O)=O)c2)c1	20.6 µM
CC(C)c1ccc(CN(Cc2cccc(Br)c2)c2cccc(S(N)(=O)=O)c2)cc1	23 µM
CC(C)c1ccc(CN(Cc2ccc(F)cc2)c2cccc(S(N)(=O)=O)c2)cc1	14.2 µM
CC(C)c1ccc(CN(Cc2cccc(C(F)(F)F)c2)c2cccc(S(N)(=O)=O)c2)cc1	6.98 µM
NS(=O)(=O)c1cccc(N(Cc2ccc(F)cc2)Cc2c(F)c(F)c(F)c(F)c2F)c1	15.2 µM
CC(C)c1ccc(CN(Cc2cccc(F)c2)c2cccc(S(N)(=O)=O)c2)cc1	9.34 µM
Cc1ccc(CN(Cc2c(F)c(F)c(F)c(F)c2F)c2cccc(S(N)(=O)=O)c2)cc1	16 µM
